Read-outs that look alike come from different tables or passages of the source. One block for each compound: values may come before it.
Columns and labels:
DLD-1 BRCA2−/− cells = test: Homologous recombination synthetic lethal inhibition of proliferation, DLD-1 BRCA2-/- (Cell Titre Glo 3D); type: cell-based; settings: Homo sapiens
In short: (§1)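 Luminescent Cell Titre Glo 3D readout, taken on day 12 for homologous-recombination-deficient DLD-1 BRCA2−/− and day 7 for the wild-type control, after compound refresh on day 6. Compounds spanned 10 μM to 0.51 nM in three-fold steps; IC50 defined as 50% reduction of average maximum signal.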

DLD-1 cells = test: Inhibition of proliferation, DLD-1 BRCA2 wt control (Cell Titre Glo 3D); type: cell-based; settings: Homo sapiens
In short: as §1

[1] = DLD-1, 288 h, DLD-1 BRCA2−/−, 12 days, Cell Titre Glo 3D, read-out: POLQ PD Prolif Lumin BRCA2 −/− Mean pIC50 (converted)
[2] = DLD-1, 168 h, DLD-1 (BRCA2 wt control), 7 days, Cell Titre Glo 3D, read-out: POLQ PD Prolif Lumin DLD1 Mean pIC50 (converted)
[3] = DLD-1, 288 h, DLD-1 BRCA2−/− cells, 12 days, read-out: POLQ PD Prolif Lumin BRCA2 −/− mean pIC50 (converted)
[4] = DLD-1, 168 h, DLD-1 BRCA2 wt cells, 7 days, read-out: POLQ PD Prolif Lumin DLD1 mean pIC50 (converted)
[5] = DLD-1, DLD-1 BRCA2-/- proliferation, column head only partly shown, read-out: POLQ PD Prolif Lumin (converted)
[6] = DLD-1, DLD-1 BRCA2 wt control proliferation, column head only partly shown, read-out: POLQ PD Prolif Lumin (converted)
[7] = DLD-1, proliferation, luminescence, taken as DLD-1 BRCA2-/-, read-out: POLQ PD Prolif Lumin (converted)
[8] = DLD-1, proliferation, luminescence, second Prolif column (c6), taken as DLD-1 BRCA2 wt control, read-out: POLQ PD Prolif Lumin (converted)
[9] = DLD-1, first proliferation column (c5), DLD-1 BRCA2-/-, read-out: POLQ PD Prolif Lumin (converted)
[10] = DLD-1, second proliferation column (c6), DLD-1 BRCA2 wt control, read-out: POLQ PD Prolif Lumin (converted)
[11] = DLD-1, DLD-1 BRCA2 −/−, mean, read-out: POLQ PD Prolif Lumin BRCA2 −/− mean pIC50 (converted)
[12] = DLD-1, DLD1 BRCA2 wt, mean, read-out: POLQ PD Prolif Lumin DLD1 mean pIC50 (converted)

- IC50 (DLD-1 cells; [2]): > 10 µM
SMILES: Cc1ccnc(Cn2c(-c3ccc(OC4CNC(=O)NC4)cc3Cl)nc3c(OC4(C)CC4)ncnc32)c1 [Example 42, 5-(3-Chloro-4-(6-(1-methylcyclopropoxy)-9-((4-methylpyridin-2-yl)methyl)-9H-purin-8-yl)phenoxy)tetrahydropyrimidin-2(1H)-one]
- IC50 (DLD-1 BRCA2−/− cells; [1]): 6.31 µM

- IC50 (DLD-1 cells; [2]): > 10 µM
SMILES: CC1(Oc2ncnc3c2nc(-c2ccc(OCCOCC(=O)O)cc2Cl)n3Cc2cccc(Cl)c2)CC1 [Example 46, 2-(2-(3-Chloro-4-(9-(3-chlorobenzyl)-6-(1-methylcyclopropoxy)-9H-purin-8-yl)phenoxy)ethoxy)acetic acid]
- IC50 (DLD-1 BRCA2−/− cells; [1]): 1.26 µM

- IC50 (DLD-1 cells; [4]): > 10 µM
SMILES: CC1(Oc2ncnc3c2nc(-c2ccc(OCCC(=O)O)cc2Cl)n3Cc2ccccc2)CC1 [Example H11, 3-(4-(9-benzyl-6-(1-methylcyclopropoxy)-9H-purin-8-yl)-3-chlorophenoxy)propanoic acid]
- IC50 (DLD-1 BRCA2−/− cells; [3]): 1 µM

- IC50 (DLD-1 cells; [6]): > 10 µM
SMILES: Cc1ccnc(Cn2c(-c3ccc(N4CCS(=O)(=O)CC4)cc3Cl)nc3c(OC4(C)CC4)ncnc32)c1 [Example T225, 4-(3-chloro-4-(6-(1-methylcyclopropoxy)-9-((4-methylpyridin-2-yl)methyl)-9H-purin-8-yl)phenyl)thiomorpholine 1,1-dioxide]
- IC50 (DLD-1 BRCA2−/− cells; [5]): 0.631 µM

- IC50 (DLD-1 cells; [8]): > 10 µM
SMILES: Cc1ccnc(Cn2c(-c3ccc(CC(=O)N4C[C@@H](O)[C@H](F)C4)cc3Cl)nc3c(OC4(C)CC4)ncnc32)c1 [Example T422, 2-(3-chloro-4-(6-(1-methylcyclopropoxy)-9-((4-methylpyridin-2-yl)methyl)-9H-purin-8-yl)phenyl)-1-((3R,4R)-3-fluoro-4-hydroxypyrrolidin-1-yl)ethan-1-one]
- IC50 (DLD-1 BRCA2−/− cells; [7]): 1 µM

- IC50 (DLD-1 cells; [10]): > 10 µM
SMILES: Cc1cnc(Cn2c(-c3cccc(OCCN4CC(O)C4)c3Cl)nc3c(OC4(C)CC4)ncnc32)s1 [Example T142, 1-(2-(2-chloro-3-(6-(1-methylcyclopropoxy)-9-((5-methylthiazol-2-yl)methyl)-9H-purin-8-yl)phenoxy)ethyl)azetidin-3-ol]
- IC50 (DLD-1 BRCA2−/− cells; [9]): 1 µM

- IC50 (DLD-1 cells; DLD-1, second proliferation column (c6), taken as DLD-1 BRCA2 wt, read-out: POLQ PD Prolif Lumin (converted)): > 10 µM
SMILES: CC1(Oc2ncnc3c2nc(-c2ccc(OCCN4CCN(S(=O)(=O)O)CC4)cc2Cl)n3Cc2cc(Cl)ccn2)CC1 [Example T380, 4-(2-(3-chloro-4-(9-((4-chloropyridin-2-yl)methyl)-6-(1-methylcyclopropoxy)-9H-purin-8-yl)phenoxy)ethyl)piperazine-1-sulfonic acid]
- IC50 (DLD-1 BRCA2−/− cells; DLD-1, first proliferation column (c5), taken as DLD-1 BRCA2-/-, read-out: POLQ PD Prolif Lumin (converted)): 7.94 µM

- IC50 (DLD-1 cells; DLD-1, DLD1 BRCA2 wt cells, mean, read-out: POLQ PD Prolif Lumin DLD1 mean PIC50 (converted)): > 10 µM
SMILES: C[C@@H](Oc1cccc(-c2nc3c(OC4(C)CC4)ncnc3n2Cc2cccc(Cl)c2)c1Cl)C(=O)O [Example T91, (R)-2-(2-chloro-3-(9-(3-chlorobenzyl)-6-(1-methylcyclopropoxy)-9H-purin-8-yl)phenoxy)propanoic acid]
- IC50 (DLD-1 BRCA2−/− cells; DLD-1, DLD-1 BRCA2 −/− cells, mean, read-out: POLQ PD Prolif Lumin BRCA2 −/− mean pIC50 (converted)): > 10 µM

- IC50 (DLD-1 cells; [2]): > 10 µM
SMILES: Cc1ccnc(Cn2c(-c3ccc(OC[C@@H](C)O)cc3Cl)nc3c(OC4(C)CC4)ncnc32)c1 [Example 37, (R)-1-(3-Chloro-4-(6-(1-methylcyclopropoxy)-9-((4-methylpyridin-2-yl)methyl)-9H-purin-8-yl)phenoxy)propan-2-ol]
- IC50 (DLD-1 BRCA2−/− cells; [1]): 0.126 µM

- IC50 (DLD-1 cells; [10]): > 10 µM
SMILES: Cc1ccnc(Cn2c(-c3ccc(OCCS(C)(=O)=O)cc3Cl)nc3c(OC4(C)CC4)ncnc32)c1 [Example T129, 8-(2-chloro-4-(2-(methylsulfonyl)ethoxy)phenyl)-6-(1-methylcyclopropoxy)-9-((4-methylpyridin-2-yl)methyl)-9H-purine]
- IC50 (DLD-1 BRCA2−/− cells; [9]): 0.158 µM

- IC50 (DLD-1 cells; [12]): > 10 µM
SMILES: COc1ccc(Cl)cc1Cn1c(-c2ccc(CCCC(C)C(=O)O)cc2Cl)nc2c(OC3(C)CC3)ncnc21 (racemic) [Example U56, 5-(3-chloro-4-(9-(5-chloro-2-methoxybenzyl)-6-(1-methylcyclopropoxy)-9H-purin-8-yl)phenyl)-2-methylpentanoic acid]
- IC50 (DLD-1 BRCA2−/− cells; [11]): 0.126 µM

- IC50 (DLD-1 cells; [12]): > 10 µM
SMILES: CC(C)(CCOc1cccc(-c2nc3c(OC4(C)CC4)ncnc3n2Cc2cccc(Cl)c2)c1Cl)CC(=O)O [Example U28, 5-(2-chloro-3-(9-(3-chlorobenzyl)-6-(1-methylcyclopropoxy)-9H-purin-8-yl)phenoxy)-3,3-dimethylpentanoic acid]
- IC50 (DLD-1 BRCA2−/− cells; [11]): 0.0794 µM

- IC50 (DLD-1 cells; [10]): > 6.31 µM
SMILES: CNC(=O)COc1cccc(-c2nc3c(OC4(C)CC4)ncnc3n2Cc2cc(C)ccn2)c1Cl [Example T120, 2-(2-chloro-3-(6-(1-methylcyclopropoxy)-9-((4-methylpyridin-2-yl)methyl)-9H-purin-8-yl)phenoxy)-N-methylacetamide]
- IC50 (DLD-1 BRCA2−/− cells; [9]): 0.158 µM

- IC50 (DLD-1 cells; [4]): 5.01 µM
SMILES: CC1(Oc2ncnc3c2nc(-c2ccc(N4CCC(N)CC4)cc2Cl)n3Cc2ccccc2)CC1 [Example M2, 1-(4-(9-benzyl-6-(1-methylcyclopropoxy)-9H-purin-8-yl)-3-chlorophenyl)piperidin-4-amine]
- IC50 (DLD-1 BRCA2−/− cells; [3]): 0.316 µM

- IC50 (DLD-1 cells; [4]): 3.16 µM
SMILES: CN1CCC(COc2ccc(-c3nc4c(OC5(C)CC5)ncnc4n3Cc3ccccc3)c(Cl)c2)CC1 [Example 5, 9-Benzyl-8-(2-chloro-4-((1-methylpiperidin-4-yl)methoxy)phenyl)-6-(1-methylcyclopropoxy)-9H-purine]
- IC50 (DLD-1 BRCA2−/− cells; [3]): 0.0501 µM

- IC50 (DLD-1 cells; [8]): > 10 µM
SMILES: Cc1ccnc(Cn2c(-c3ccc(CC(=O)N4CCNC(=O)C4)cc3Cl)nc3c(OC4(C)CC4)ncnc32)c1 [Example T431, 4-(2-(3-chloro-4-(6-(1-methylcyclopropoxy)-9-((4-methylpyridin-2-yl)methyl)-9H-purin-8-yl)phenyl)acetyl)piperazin-2-one]
- IC50 (DLD-1 BRCA2−/− cells; [7]): 2.51 µM

- IC50 (DLD-1 cells; [10]): > 10 µM
SMILES: Cc1ccnc(Cn2c(-c3ccc(C(=O)N4CCCNCC4)cc3Cl)nc3c(OC4(C)CC4)ncnc32)c1 [Example T496, (3-chloro-4-(6-(1-methylcyclopropoxy)-9-((4-methylpyridin-2-yl)methyl)-9H-purin-8-yl)phenyl)(1,4-diazepan-1-yl)methanone]
- IC50 (DLD-1 BRCA2−/− cells; [9]): > 10 µM

- IC50 (DLD-1 cells; [12]): > 10 µM
SMILES: COc1ccc(Cl)c(F)c1Cn1c(-c2ccc(OCCC(C)C(=O)O)cc2Cl)nc2c(OC3(C)CC3)ncnc21 (racemic) [Example U57, 4-(3-chloro-4-(9-(3-chloro-2-fluoro-6-methoxybenzyl)-6-(1-methylcyclopropoxy)-9H-purin-8-yl)phenoxy)-2-methylbutanoic acid]
- IC50 (DLD-1 BRCA2−/− cells; [11]): 0.126 µM

- IC50 (DLD-1 cells; [12]): > 10 µM
SMILES: COc1ccc(Cl)cc1Cn1c(-c2cccc(OCCCOC(C)(C)C(=O)O)c2Cl)nc2c(OC3(C)CC3)ncnc21 [Example U90, 2-(3-(2-chloro-3-(9-(5-chloro-2-methoxybenzyl)-6-(1-methylcyclopropoxy)-9H-purin-8-yl)phenoxy)propoxy)-2-methylpropanoic acid]
- IC50 (DLD-1 BRCA2−/− cells; [11]): 0.00501 µM

- IC50 (DLD-1 cells; [4]): > 10 µM
SMILES: COc1ccc(-c2nc3c(OC4(C)CC4)ncnc3n2Cc2ccccc2)c(Cl)c1 [Example N8, 9-Benzyl-8-(2-chloro-4-methoxyphenyl)-6-(1-methylcyclopropoxy)-9H-purine]
- IC50 (DLD-1 BRCA2−/− cells; [3]): 0.251 µM

- IC50 (DLD-1 cells; [6]): > 10 µM
SMILES: CC(CCOc1ccc(-c2nc3c(OC4(C)CC4)ncnc3n2Cc2c(Cl)cccc2Br)c(Cl)c1)C(=O)O (racemic) [Example T259, 4-(4-(9-(2-bromo-6-chlorobenzyl)-6-(1-methylcyclopropoxy)-9H-purin-8-yl)-3-chlorophenoxy)-2-methylbutanoic acid]
- IC50 (DLD-1 BRCA2−/− cells; [5]): 3.16 µM

- IC50 (DLD-1 cells; [8]): > 10 µM
SMILES: Cc1ccnc(Cn2c(-c3ccc(C(=O)N4CCC(O)CC4)cc3Cl)nc3c(OC4(C)CC4)ncnc32)c1 [Example T460, (3-chloro-4-(6-(1-methylcyclopropoxy)-9-((4-methylpyridin-2-yl)methyl)-9H-purin-8-yl)phenyl)(4-hydroxypiperidin-1-yl)methanone]
- IC50 (DLD-1 BRCA2−/− cells; [7]): 3.16 µM

- IC50 (DLD-1 cells; [4]): 7.94 µM
SMILES: Cc1cc(OCCN)ncc1-c1nc2c(OC3(C)CC3)ncnc2n1Cc1ccccc1 [Example G8, 2-((5-(9-benzyl-6-(1-methylcyclopropoxy)-9H-purin-8-yl)-4-methylpyridin-2-yl)oxy)ethan-1-amine]
- IC50 (DLD-1 BRCA2−/− cells; [3]): 2 µM

- IC50 (DLD-1 cells; [6]): > 10 µM
SMILES: CC1(Oc2ncnc3c2nc(-c2ccc(OCCN4CC(O)C4)cc2Cl)n3Cc2cc(Cl)ccn2)CC1 [Example T206, 1-(2-(3-chloro-4-(9-((4-chloropyridin-2-yl)methyl)-6-(1-methylcyclopropoxy)-9H-purin-8-yl)phenoxy)ethyl)azetidin-3-ol]
- IC50 (DLD-1 BRCA2−/− cells; [5]): 0.126 µM

— US20250195530A1, “POLQ INHIBITORS” (ASTRAZENECA AB, priority 2022, published 2025)
